Measurements published in patent US9695149B2, “1,2,6-substituted benzimidazoles as flap modulators” (JANSSEN PHARMACEUTICA NV, priority 2013, dated 2017).
Counter-ions that a name gives are not always drawn.

Tests used:
[1] = test system: leukotriene pathway in human whole blood; assay: Human whole blood assay (LTB4, A23187-stimulated); assay type: cell-based; settings: human whole blood diluted 1:1 in RPMI, calcium ionophore A23187 7 μg/mL, 30 min
Description: (§1) The ability of the compounds of the present invention to treat a FLAP-mediated disease and/or disorder, or associated symptoms or complications thereof, was determined using the following procedures. Binding assay data represent the average value obtained from two different assay plates, with samples run in duplicate on each plate. Human whole blood assay data represent a single replicate on an assay plate using whole blood from at least one healthy donor.
An in vitro cellular assay was performed using human whole blood collected in heparin-containing tubes, which was used to test the ability of compounds to modulate the leukotriene pathway in human whole blood. The blood was diluted 1:1 in RPMI medium, pre-incubated for 15 min at 37° Celsius with test compounds at various concentrations, and then stimulated with calcium ionophore, A23187 (7 μg/mL), for 30 min at 37° Celsius. The samples were then centrifuged and plasma was removed. The plasma was diluted in assay buffer and LTB4 levels were measured using a commercial kit (Enzo Life Sciences). The concentration of each compound that was required for half-maximal inhibition (modulation) of […] (IC50) was calculated by a 4-parameter equation using the program GraphPad Prism (GraphPad software). For analysis, data are imported into 3DX and aggregated as the average of duplicates of the calculated ratios in order to calculate Ki and IC50 values. Numbers in parentheses are the number of runs for the assay.

human FLAP = human FLAP (Homo sapiens (Human), UniProt P20292); assay: FLAP binding assay (HTRF format); settings: human FLAP-containing Sf-9 membranes, wild type; average of runs
Description: as §1
The assay below is used to test the modulatory activity of compounds against FLAP. Human and mouse FLAP-encoding DNA was amplified by polymerase chain reaction and cloned into pFastBac1 (Invitrogen) with a NH2-terminal 6-His tag for expression in Spodoptera frugiperda (Sf-9) cells. FLAP-containing membranes were prepared as was a FITC-labeled FLAP modulator (3-(3-(tert-butylthio)-1-(4-chlorobenzyl)-5-(quinolin-2-ylmethoxy)-1H-indol-2-yl)-2,2-dimethylpropanoic acid). The FLAP binding assay is performed in HTRF format (homogeneous time resolved fluorescence). […] The reaction is allowed to proceed for two hours after which the plate is read on an Envision plate reader in HTRF mode. Data are expressed as a HTRF ratio.
For human FLAP binding assays, data are analyzed with 3DX Explorer software. […] For analysis, data from multiple runs are averaged and each compound may be tested in 2 to 20 runs. Each run comprises two plates and each plate includes duplicates. Data from each plate is averaged and data are imported into 3DX. The data from multiple runs are aggregated as the average of duplicates of the calculated ratios in order to calculate Ki and IC50 values. Numbers in parentheses are the number of runs for the assay.

human FLAP, sequence (P20292 whole entry): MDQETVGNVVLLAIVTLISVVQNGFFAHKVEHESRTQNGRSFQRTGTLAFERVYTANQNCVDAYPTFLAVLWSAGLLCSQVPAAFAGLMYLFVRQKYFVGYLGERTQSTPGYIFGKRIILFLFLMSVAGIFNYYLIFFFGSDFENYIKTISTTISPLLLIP

SMILES	IC50 ([1]; Homo sapiens, 0.5 h) [nM]	Ki (human FLAP) [nM]	IC50 [1] [nM]
Cc1ccc(COc2ccc3nc(C4CCCC[C@H]4C(=O)O)n(Cc4cc(N5CCC(F)(F)CC5)ccc4F)c3c2)nc1 (mixture of isomers) [Example 208, racemic cis-2-{1-[5-(4,4-Difluoropiperidin-1-yl)-2-fluorobenzyl]-6-[(5-methylpyridin-2-yl)methoxy]-1H-benzimidazol-2-yl}cyclohexanecarboxylic acid]	370	9.5	
Cc1ccc(COc2ccc3nc(C4CCCC[C@H]4C(=O)O)n(Cc4cccc(N5CCCC(F)(F)C5)c4)c3c2)nc1 (mixture of isomers) [Example 222, racemic cis-2-{1-[3-(3,3-Difluoropiperidin-1-yl)benzyl]-6-[(5-methylpyridin-2-yl)methoxy]-1H-benzimidazol-2-yl}cyclohexanecarboxylic acid]	310	3.8	
CCC(CC)(Cc1nc2ccc(OCc3ccc(C)cn3)cc2n1Cc1ccc(N2CCC(F)(F)C2)cc1)C(=O)O [Example 226, 2-({1-[4-(3,3-Difluoropyrrolidin-1-yl)benzyl]-6-[(5-methylpyridin-2-yl)methoxy]-1H-benzimidazol-2-yl}methyl)-2-ethylbutanoic acid]	~3200	17	
Cn1ccc(COc2ccc3nc(C4CCCC[C@H]4C(=O)O)n(Cc4cccc(N5CCCCC5)c4)c3c2)n1 (mixture of isomers) [Example 204, racemic cis-2-{6-[(1-Methyl-1H-pyrazol-3-yl)methoxy]-1-(3-piperidin-1-ylbenzyl)-1H-benzimidazol-2-yl}cyclohexanecarboxylic acid]	240	31	
Cc1ccc(COc2ccc3nc(C4CCCC[C@H]4C(=O)O)n(Cc4ccccc4C)c3c2)nc1 (mixture of isomers) [Example 207, racemic cis-2-{1-(2-Methylbenzyl)-6-[(5-methylpyridin-2-yl)methoxy]-1H-benzimidazol-2-yl}cyclohexanecarboxylic acid]		31	1810
Cc1cnc(COc2ccc3nc(CC(C)(C)C(=O)O)n(Cc4cccc(Br)c4)c3c2)c(F)c1 [Example 191, 3-{1-(3-Bromobenzyl)-6-[(3-fluoro-5-methylpyridin-2-yl)methoxy]-1H-benzimidazol-2-yl}-2,2-dimethylpropanoic acid]	> 10000	70	
COc1ncc(-c2cccc(Cn3c(C4CCCC[C@H]4C(=O)O)nc4ccc(OCc5ccc(C)cn5)cc43)c2)cn1 (mixture of isomers) [Example 195, racemic cis-2-{1-[3-(2-Methoxypyrimidin-5-yl)benzyl]-6-[(5-methylpyridin-2-yl)methoxy]-1H-benzimidazol-2-yl}cyclohexanecarboxylic acid]	1430	19	
Cc1ccc(COc2ccc3nc(C4CCCC[C@H]4C(=O)O)n(Cc4cc(N5CCCCC5)ccc4F)c3c2)nc1 (mixture of isomers) [Example 209, racemic cis-2-{1-(2-Fluoro-5-piperidin-1-ylbenzyl)-6-[(5-methylpyridin-2-yl)methoxy]-1H-benzimidazol-2-yl}cyclohexanecarboxylic acid]	150	3.8	
Cn1ccc(COc2cc(F)c3nc(C4CCCC[C@H]4C(=O)O)n(Cc4ccc(N5CCC(F)(F)C5)cc4)c3c2)n1 (mixture of isomers) [Example 236, racemic cis-2-{1-[4-(3,3-Difluoropyrrolidin-1-yl)benzyl]-4-fluoro-6-[(1-methyl-1H-pyrazol-3-yl)methoxy]-1H-benzimidazol-2-yl}cyclohexanecarboxylic acid]	1650	2.4	
Cc1ccc(COc2ccc3nc(C4CCCC[C@H]4C(=O)O)n(Cc4cccc(N5CC(F)(F)C5)c4)c3c2)nc1 (mixture of isomers) [Example 219, racemic cis-2-{1-[3-(3,3-Difluoroazetidin-1-yl)benzyl]-6-[(5-methylpyridin-2-yl)methoxy]-1H-benzimidazol-2-yl}cyclohexanecarboxylic acid]	1600	9.1	
CCC(CC)(Cc1nc2ccc(OCc3ccn(C)n3)cc2n1Cc1cccc(N2CCCCC2)c1)C(=O)O [Example 212, 2-Ethyl-2-({6-[(1-methyl-1H-pyrazol-3-yl)methoxy]-1-(3-piperidin-1-ylbenzyl)-1H-benzimidazol-2-yl}methyl)butanoic acid]	1080	90	

More lines, in order of falling Ki (human FLAP), values ahead:

IC50 ([1]; Homo sapiens, 0.5 h) [nM]	Ki (human FLAP) [nM]	IC50 [1] [nM]	SMILES
> 30000	180		Cc1ccc(COc2cc(F)c3nc(CC4(C(=O)O)CCCC4)n(Cc4ccccc4Br)c3c2)nc1 [Example 231, 1-({1-(2-Bromobenzyl)-4-fluoro-6-[(5-methylpyridin-2-yl)methoxy]-1H-benzimidazol-2-yl}methyl)cyclopentanecarboxylic acid as the trifluoroacetic salt]
> 30000	73		Cc1ccc(COc2cc(F)c3nc(CC4(C(=O)O)CCCC4)n(Cc4cccc(Br)c4)c3c2)nc1 [Example 230, 1-({1-(3-Bromobenzyl)-4-fluoro-6-[(5-methylpyridin-2-yl)methoxy]-1H-benzimidazol-2-yl}methyl)cyclopentanecarboxylic acid as the trifluoroacetic salt]
1270	45		Cc1ccc(COc2ccc3nc(C4CCCC[C@H]4C(=O)O)n(Cc4ccccc4C)c3c2)nc1 (mixture of isomers) [Example 206, racemic trans-2-{1-(2-Methylbenzyl)-6-[(5-methylpyridin-2-yl)methoxy]-1H-benzimidazol-2-yl}cyclohexanecarboxylic acid]
840	35		CCC(CC)(Cc1nc2ccc(OCc3ccn(C)n3)cc2n1Cc1cccc(N2CCC(F)(F)C2)c1)C(=O)O [Example 211, 2-({1-[3-(3,3-Difluoropyrrolidin-1-yl)benzyl]-6-[(1-methyl-1H-pyrazol-3-yl)methoxy]-1H-benzimidazol-2-yl}methyl)-2-ethylbutanoic acid]
3140	30		Cc1ccc(COc2ccc3nc(C4CCCC[C@H]4C(=O)O)n(Cc4cccc(C)c4)c3c2)nc1 (mixture of isomers) [Example 200, racemic trans-2-{1-(3-Methylbenzyl)-6-[(5-methylpyridin-2-yl)methoxy]-1H-benzimidazol-2-yl}cyclohexanecarboxylic acid]
730	18		Cn1ccc(COc2ccc3nc(C4CCCC[C@H]4C(=O)O)n(Cc4cccc(N5CCC(F)(F)CC5)c4)c3c2)n1 (mixture of isomers) [Example 203, racemic cis-2-{1-[3-(4,4-Difluoropiperidin-1-yl)benzyl]-6-[(1-methyl-1H-pyrazol-3-yl)methoxy]-1H-benzimidazol-2-yl}cyclohexanecarboxylic acid]
	12	1680	Cc1ccc(COc2ccc3nc(C4CCCC[C@H]4C(=O)O)n(Cc4cccc(C)c4)c3c2)nc1 (mixture of isomers) [Example 201, racemic cis-2-{1-(3-Methylbenzyl)-6-[(5-methylpyridin-2-yl)methoxy]-1H-benzimidazol-2-yl}cyclohexanecarboxylic acid]
4010	6.8		Cc1ccc(COc2ccc3nc(C4CCCC[C@H]4C(=O)O)n(Cc4cccc(Br)c4)c3c2)nc1 (mixture of isomers) [Example 228, racemic cis-2-{1-(3-Bromobenzyl)-6-[(5-methylpyridin-2-yl)methoxy]-1H-benzimidazol-2-yl}cyclohexanecarboxylic acid]
1810	6.6		Cn1ccc(COc2ccc3nc(C4CCCC[C@H]4C(=O)O)n(Cc4cccc(Br)c4)c3c2)n1 (single isomer, unassigned) [Example 197, (1S*,2R*)-2-{1-(3-Bromobenzyl)-6-[(1-methyl-1H-pyrazol-3-yl)methoxy]-1H-benzimidazol-2-yl}cyclohexanecarboxylic acid]
580	5.7		CCC(CC)(Cc1nc2ccc(OCc3ncc(C)cc3F)cc2n1Cc1ccc(N2CCC(C(F)(F)F)CC2)cc1)C(=O)O [Example 194, 2-Ethyl-2-[(6-[(3-fluoro-5-methylpyridin-2-yl)methoxy]-1-{4-[4-(trifluoromethyl)piperidin-1-yl]benzyl}-1H-benzimidazol-2-yl)methyl]butanoic acid]
